Source: patent US10288629B1, “Method of assessing growth hormone deficiency in humans by a macimorelin containing composition” (AEterna Zentaris, Inc., priority 2017, dated 2019)
One block for each compound: values may come before it.

How the values were obtained:
GH level [1] = assay: agreement of the Macimorelin GHST with the ITT for diagnosis of AGHD; type: in vivo, human; conditions: cut-off 2.8 ng/mL macimorelin, 5.1 ng/mL ITT, N = 139
Experimental: The study protocol allowed for a 5 minutes time window for each of said time points, meaning that a blood sample collected for example within 25 to 35 min after GH provocation agent administration was […] collected for the 30 min time point.

peak GH concentrations = assay: peak GH response in the macimorelin GHST and ITT; type: in vivo, human; conditions: all AGHD likelihood groups A-D; N=139; FIG. 5
Experimental: Blood samples were collected before and 30, 45, 60, and 90 minutes after administration of macimorelin and before and 15, 30, 45, 60, 90 and 120 minutes after administration of insulin to the efficacy data set subjects and GH levels were determined for all samples.

GH level [2] = assay: repeatability of the macimorelin GHST; type: in vivo, human; conditions: below or above cut-off point
Description: To assess the repeatability of the macimorelin GHST, 33 subjects with a valid first macimorelin test (core study) underwent a second macimorelin test (repeatability study extension).

[3] = design: species or system human; conditions: in vivo
human GHS receptor = target: T1, human GHS receptor (Homo sapiens, UniProt Q92847); conditions: membrane preparations from human hypothalamus and pituitary gland; compared with ghrelin; cited from earlier work
T1 construct: membrane preparations containing the GHS-receptor derived from human hypothalamus and pituitary gland; from tissue; host or cells: human hypothalamus and pituitary gland membranes

[4] = macimorelin sample: peak of 0-90 min
[5] = macimorelin sample: peak of 45 & 60 min
[6] = macimorelin sample: peak of 60 & 90 min

T1 sequence (Q92847 whole entry): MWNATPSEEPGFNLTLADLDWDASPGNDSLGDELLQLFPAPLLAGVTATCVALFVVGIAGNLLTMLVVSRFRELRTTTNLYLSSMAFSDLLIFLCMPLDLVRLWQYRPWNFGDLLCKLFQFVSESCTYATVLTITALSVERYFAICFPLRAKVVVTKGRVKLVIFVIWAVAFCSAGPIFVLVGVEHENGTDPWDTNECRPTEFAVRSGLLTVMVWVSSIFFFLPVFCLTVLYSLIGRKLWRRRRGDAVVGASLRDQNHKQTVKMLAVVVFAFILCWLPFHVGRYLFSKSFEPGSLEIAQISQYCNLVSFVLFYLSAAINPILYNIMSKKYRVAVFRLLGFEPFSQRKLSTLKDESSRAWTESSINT

diarrhea ([3]; human): 1.9% | dizziness ([3]; human): 3.9% | dysgeusia ([3]; human): 4.5% | fatigue ([3]; human): 3.9% | feeling hot ([3]; human): 1.3% | headache ([3]; human): 3.9% | hunger ([3]; human): 3.2% | hyperhidrosis ([3]; human): 1.3% | nasopharyngitis ([3]; human): 1.3% | nausea ([3]; human): 3.2% | sinus bradycardia ([3]; human): 1.3% | upper respiratory tract infection ([3]; human): 1.9%
Compound: CC(C)(N)C(=O)N[C@H](Cc1c[nH]c2ccccc12)C(=O)N[C@H](Cc1c[nH]c2ccccc12)NC=O [Macimorelin, macimorelin]
Negative % agreement (GH level [1]; macimorelin sample: 30 min): 73.85% | Positive % agreement (GH level [1]; macimorelin sample: 30 min): 82.43% | Total % agreement (GH level [1]; macimorelin sample: 30 min): 78.42% | Negative % agreement (GH level [1]; macimorelin sample: 45 min): 86.15% | Positive % agreement (GH level [1]; macimorelin sample: 45 min): 78.38% | Total % agreement (GH level [1]; macimorelin sample: 45 min): 82.01% | Negative % agreement (GH level [1]; macimorelin sample: 60 min): 95.31% | Positive % agreement (GH level [1]; macimorelin sample: 60 min): 81.08% | Total % agreement (GH level [1]; macimorelin sample: 60 min): 87.68% | Negative % agreement (GH level [1]; macimorelin sample: 90 min): 84.62% | Positive % agreement (GH level [1]; macimorelin sample: 90 min): 86.49% | Total % agreement (GH level [1]; macimorelin sample: 90 min): 85.61% | Negative % agreement (GH level [1]; [4]): 95.38% | Positive % agreement (GH level [1]; [4]): 74.32% | Total % agreement (GH level [1]; [4]): 84.17% | Negative % agreement (GH level [1]; [5]): 95.38% | Positive % agreement (GH level [1]; [5]): 75.68% | Total % agreement (GH level [1]; [5]): 84.89% | Negative % agreement (GH level [1]; [6]): 95.38% | Positive % agreement (GH level [1]; [6]): 78.38% | Total % agreement (GH level [1]; [6]): 86.33% | Negative % agreement (GH level [1]; macimorelin sample: pre-dose): 13.85% | Positive % agreement (GH level [1]; macimorelin sample: pre-dose): 98.65% | Total % agreement (GH level [1]; macimorelin sample: pre-dose): 58.99% | peak GH levels in the macimorelin GHST as compared to the ITT (peak GH concentrations): higher peak GH levels | result of second macimorelin test matching result of first test (GH level [2]; 33 subjects): 94% | subjects with reproducible test outcome (number) (GH level [2]; out of 33 subjects): 31 | binding potency to the human GHS receptor (human GHS receptor): comparable to that of its natural ligand, ghrelin

Compound: ITT: insulin tolerance test: intravenous administration of insulin to induce hypoglycaemia, which leads to GH release; comparator GHST [reference compound]
Any TEAE (likely or possible related), % of subjects [3]: 94.9% | Any TEAE (likely or possible related), Frequency (number of subjects) [3]: 149 | Any TEAE (likely or possible related), N AEs [3]: 710 | Any TEAE, % of subjects [3]: 96.2% | Any TEAE, N AEs (number of all AEs) [3]: 761 | Any test emergent severe AE, % of subjects [3]: 7% | severe TEAE asthenia, number of subjects [3]: 4 | severe TEAE hunger, number of subjects [3]: 3 | severe TEAE hyperhidrosis, number of subjects [3]: 5 | severe TEAE nervousness, number of subjects [3]: 2 | severe TEAE somnolence, number of subjects [3]: 5 | severe TEAE tremor, % of subjects [3]: 0.6% | severe TEAE tremor, number of subjects [3]: 1
